US11690935B2, “Thermosensitive peptide hydrogel” (NATIONAL CHIAO TUNG UNIVERSITY, priority 2020, dated 2023)
Blank lines part the entries; values can stand above or below the compound they belong to. Residues, ends and D or L forms follow the SMILES beside them. *: point of attachment. Phenylacetyl(2,3,4,5,6-F5) = O=C(Cc1c(F)c(F)c(F)c(F)c1F)*

Key:
[1] = Gel formation / sol-gel transition by vial inverting method; format: physicochemical; details: for CGC: Table 5, critical gelation concentration; for Time at room temperature to convert again into a sol state: after gelation at 37° C., regardless of the concentration
Procedure: In a glass bottle of 2 mL (diameter 10 mm) with a screw cap, different compounds with different concentrations were weighed to perform the gelation. A sodium hydroxide solution was added to the suspension in order to adjust the pH value, and vortex and treatment of the sonication were alternately used until a clear compound solution was obtained. Polyethylene glycols having different molecular weights such as 300 g/mol, 600 g/mol, 1000 g/mol, 1500 g/mol, 2000 g/mol, and 3000 g/mol, etc. were also dissolved in the deionized water in order to obtain the polyethylene glycol solution, and the desired concentrations were further controlled. After the polyethylene glycols were completely dissolved, the polyethylene glycol solution was then mixed with the compound solution in order to obtain a compound/PEG solution. By adding hydrochloric acid dropwise, the pH value of the compound/PEG solution was adjusted to a neutral pH value of 7.0-7.4.
Gel formation was determined by a vial inverting method. After the equilibrium at room temperature, a glass bottle with the sample was immersed into a water bath of 37° C. in equilibrium or in an incubator of 37° C. for 30 minutes. After flipping the glass bottle, the sol-gel transition was determined. If the sample without floating was observed within 1 minute, the sample was considered as a gel. […] Each of the temperature data point represented an average temperature of three measurements. At a physiologically relevant temperature of 37° C., the gelation time as a function of the concentration of the block copolymer was measured in the water bath of 37° C.

[2] = Hydrogel degradation in PBS at 37° C.; format: physicochemical; details: on the seventh day, PBS pH 7.4, 37° C.
Procedure: Hydrogel degradation was performed in a phosphate buffered solution (PBS) at 37° C. with 5% of CO2. In a 4 mL glass bottle, various 0.3 mL hydrogels were prepared, and 3 mL PBS was added to each of the glass bottles having the hydrogel. At some specific data points, the PBS was removed. The hydrogel was freeze-dried by the freeze-drying method, and the hydrogel degradation rate was calculated according to the following Formula (1),
[formula] wherein W (%) represented the hydrogel degradation rate, Wi represented the initial weight of the hydrogel at day 0, and Wd represented the dry weight of the hydrogel at day of a specific number. Cell Viability Test
In some embodiments of the invention, accordingly, with the remaining conditions the same, the stability of the thermosensitive hydrogel was tested by immersing the samples into a PBS with the pH value of 7.4 at 37° C., and the result thereof was shown in FIG. 10. FIG. 10 was a diagram showing specific degradation percentage over time of the 5F-FF, 5F-FF/PEG300, 5F-FF/PEG600, 5F-FF/PEG1000, 5F-FF/PEG1500, 5F-FF/PEG2000, and 5F-FF/PEG3000 alone in the PBS according to some embodiments of the invention.

[3] = Cell viability test (MTT assay); format: cell-based; details: human, hMSC (3A6) cells, read-out: Survival rate
Procedure: The biocompatibilities of different peptide molecules were measured by a cell viability test (MTT assay). hMSC (3A6) cells were seeded in a 24-well plate with a density of 50,000 cells in each well, and the hMSC (3A6) cells were cultured for 24 hours, wherein the 24-well plate comprises a culture medium (DMEM) of 0.5 mL, and the DMEM comprises 10% FBS and 1% penicillin. When seeded in the cells, each of the wells was added with the compounds of different concentrations (0.5 and 5 wt %). After 24 and 48 hours, the original culture medium was replaced by a fresh culture medium, wherein the fresh culture medium was supplemented with a MTT reagent of 0.5 mL (4 mg/mL). After another 4 hours, the culture medium containing the MTT reagent was removed, and DMSO (0.5 mL per well) was then added in order to dissolve formazan crystals. Each of the 24-well plate was transferred to a 96-well plate. The optical density of the cells was measured at 595 nm by a light absorption plate reader (Sunrise, DV990/BV4 GDV Programmable MPT reader). The cells without treated by the compounds were used as the control group. The cell viability percentage, that is, viability (%), of the cells was calculated according to the following Formula (2).
[formula] wherein ODsample represented the optical density of the sample, and ODcontrol represented the optical density of the control group.
In some embodiments of the invention, a cell viability test (MTT assay) was used for a colorimetric assay to analyze the biocompatibilities of the samples. In detail, a 0.5 wt % 5F-FF, a 0.5 wt %: 4.5 wt % 5F-FF/PEG1500, a 0.5 wt %: 4.5 wt % 5F-FF/PEG2000, and a 0.5 wt %: 4.5 wt % 5F-FF/PEG3000 (hydrogels under neutral conditions), and the immortalized human mesenchymal stem cells (hMSC, 3a6) was selected for testing, wherein the results were shown in FIG. 11. FIG. 11 was a diagram showing cell viability of cells treated with 0.5 wt % 5F-FF, 0.5 wt %: 4.5 wt % 5F-FF/PEG1500, 0.5 wt %: 4.5 wt % 5F-FF/PEG2000 and 0.5 wt %: 4.5 wt % 5F-FF/PEG3000 according to some embodiments of the invention.

- Time Tsol-gel ([1]; 5F-FF with PEG of different molecular weights, thermosensitive gelation at 37° C., pH 7.0): Gel
- CGC (critical gelation concentration) ([1]; 5F-FF, Table 2): 0.5 wt %
- Degradation percentage [2]: 35.75%
SMILES: O=C(Cc1c(F)c(F)c(F)c(F)c1F)N[C@@H](Cc1ccccc1)C(=O)N[C@@H](Cc1ccccc1)C(=O)O [Sample 5F-FF, 2,3,4,5,6-fluorobenzyl-diphenylalanine]
- viability at 24 h, 0.5 wt % ([3]; day 1, hMSC (3A6), hydrogels under neutral conditions): 84%
- viability at 48 h, 0.5 wt % ([3]; day 2, hMSC (3A6)): 88.6%
- viability at 72 h, 0.5 wt % ([3]; day 3, hMSC (3A6)): 68.2%
- viability at 120 h, 0.5 wt % ([3]; day 5, hMSC (3A6)): 73.3%
- viability at 168 h, 0.5 wt % ([3]; day 7, hMSC (3A6)): 84%

- CGC ([1]; pH 7.0): 0.5 wt %
SMILES: O=C(Cc1c(F)cc(F)cc1F)N[C@@H](Cc1ccccc1)C(=O)N[C@@H](Cc1ccccc1)C(=O)O [Sample 3F-FF]

- CGC ([1]; pH 7.0): 1 wt %
- State at 37° C. ([1]; Table 6, 1F-FF with PEG of different molecular weights, pH 7.0): Gel
- Detailed description of the sample ([1]; Table 6, after cooling at 0° C.): Still hydrosol
- State at 0° C. (Surrounded by ice cubes) ([1]; Table 6, gel-sol behavior, pH 7.0): Gel
SMILES: O=C(Cc1ccc(F)cc1)N[C@@H](Cc1ccccc1)C(=O)N[C@@H](Cc1ccccc1)C(=O)O [Sample 1F-FF]

- Time at room temperature to convert again into a sol state [1]: 20 min
SMILES: CC(NC(=O)C(Cc1cnc[nH]1)NC(=O)CNC(=O)C(Cc1ccccc1)NC(=O)C(Cc1ccccc1)NC(=O)Cc1c(F)c(F)c(F)c(F)c1F)C(=O)NC(C(=O)NC(CC(=O)O)C(=O)O)C(C)C (stereo not drawn) [Sample 5F-FFGHAVD] ({Phenylacetyl(2,3,4,5,6-F5)}-FFGHAVD-OH; configuration not given here)

- Time at room temperature to convert again into a sol state [1]: 20 min
SMILES: N=C(N)NCCCC(NC(=O)C(Cc1ccccc1)NC(=O)C(Cc1ccccc1)NC(=O)Cc1c(F)c(F)c(F)c(F)c1F)C(=O)NCC(=O)NC(CC(=O)O)C(=O)O (stereo not drawn) [Sample 5F-FFRGD] ({Phenylacetyl(2,3,4,5,6-F5)}-FFRGD-OH; configuration not given here)
